The text below walks through data of ChEMBL document CHEMBL3507680, “University of Dundee, Gates Library screen for HepG2 cell viability”.

The series in a line: Human HepG2 cell viability assay in 384 well format. Type of series: toxicity, cell-based. More on the design: dose 125 nL, time 70.5 hour; cytotoxicity at 70.5 h: concentration not given beside the values. To be noted: HepG2 cells, read-out: Inhibition.

Take `N#CC1(C(=O)N2CCCN(Cc3cscn3)CC2)CCCCC1`: the cytotoxicity at 70.5 h is 0.606%.

With `CCc1nc2n(n1)CC(NCC(=O)Nc1cc(C(C)(C)C)no1)CC2` (centres undefined), the cytotoxicity at 70.5 h was -0.0913%.

For `CCc1ccc(C(C)NC(=O)N2CCC(n3cncn3)CC2)cc1` (centres undefined), the cytotoxicity at 70.5 h was -8.05%.

For the molecule `Cn1cc(C2CCCN2C(=O)CCCc2cccs2)cn1` (centres undefined), the cytotoxicity at 70.5 h was -12.4%.

On to `CC(C)c1noc(CCCC(=O)N2CCN(S(C)(=O)=O)CC2)n1`, for which the cytotoxicity at 70.5 h is -5.72%.

For the molecule `CC(C)c1noc(CCC(=O)N2CCN(Cc3ccncc3)CC2)n1`, the cytotoxicity at 70.5 h is -7.35%.

With `Cc1cc(CN(C)C(=O)c2cccc(N3CCCS3(=O)=O)c2)no1`, the cytotoxicity at 70.5 h is -12.6%.

On to `CC(Cn1ccnc1)NC(=O)C1(c2ccc(F)cc2)CCCC1` (centres undefined), for which the cytotoxicity at 70.5 h was -7.69%.

Consider `Cc1cc(CN2CCN(C(=O)CCCc3nc(C(C)C)no3)CC2)on1`, for which the cytotoxicity at 70.5 h was -8.77%.

For the molecule `Cn1cc(NS(=O)(=O)c2ccc(F)c(F)c2)ccc1=O`, the cytotoxicity at 70.5 h was -7.99%.

Turning to `Cn1ncc2c(=O)[nH]c(CN3CCCC3c3ccccc3Cl)nc21` (centres undefined), the cytotoxicity at 70.5 h was -8.75%.

For the molecule `Cn1ncc2c(=O)[nH]c(CN3CCc4ccccc4C3)nc21`, the cytotoxicity at 70.5 h was -15.9%.

Regarding `COC(=O)c1ccc(N2CCN(C(=O)c3ccc(O)nc3)C(C)C2)cc1` (centres undefined), the cytotoxicity at 70.5 h is -7.53%.

`COC(=O)c1ccc(N2CCN(C(=O)c3cnccn3)C(C)C2)cc1` (centres undefined): the cytotoxicity at 70.5 h was -6.45%.

Turning to `N#CC1(C(=O)N2CCN(Cc3cscn3)CC2)CCCCC1`, the cytotoxicity at 70.5 h is -4.74%.

With `CCc1nc(CN2CCN(C(=O)C3(C#N)CCCCC3)CC2)cs1`, the cytotoxicity at 70.5 h is -0.0355%.

For the molecule `Cc1nc(CN2CCCC(NCc3cccc(C(N)=O)c3)C2)no1` (centres undefined), the cytotoxicity at 70.5 h was -3.45%.

Turning to `Cc1ccc(C)c(C(C)NC(=O)N2CCC(n3cncn3)CC2)c1` (centres undefined), the cytotoxicity at 70.5 h was -3.74%.

Consider `Cn1cc(C2CCCN2C(=O)CCCc2ccccn2)cn1` (centres undefined), for which the cytotoxicity at 70.5 h is -7.85%.

On to `Cc1cc(NC(=O)CNC2CCc3nc(C(C)C)nn3C2)no1` (centres undefined), for which the cytotoxicity at 70.5 h is -6.53%.

As for `CCc1nc(CN2CCCC(NCc3cccc(C(N)=O)c3)C2)no1` (centres undefined), the cytotoxicity at 70.5 h is -6.52%.

As to `Cc1cc(CN(C)C(=O)c2ccc(Cl)cc2N2CCCC2=O)no1`, the cytotoxicity at 70.5 h was -12.5%.

As for `CCNc1cc2c(nn1)CCN(C(=O)C1CCc3ccccc31)C2` (centres undefined), the cytotoxicity at 70.5 h is -0.738%.

Take `COc1ccccc1C(C)NC(=O)N1CCC(n2cncn2)CC1` (centres undefined): the cytotoxicity at 70.5 h is -7.85%.

For `CCn1cnnc1C1CCN(C(=O)c2cc3c(s2)CCOC3)CC1`, the cytotoxicity at 70.5 h was -9.84%.

Consider `Cn1cnnc1C1CCN(C(=O)c2cc3c(s2)CCC3)CC1`, for which the cytotoxicity at 70.5 h was -9.61%.

In the case of `Cc1oc(-c2ccco2)nc1CN1CCCC(Cn2cncn2)C1` (centres undefined), the cytotoxicity at 70.5 h stood at 39.6%.

On to `CCOCC(O)CN1CCN(C(=O)c2ccc3c(c2)COC3)CC1` (centres undefined), for which the cytotoxicity at 70.5 h was -8.02%.

As for `Cc1cccc(C)c1OCCNC(=O)C(C)n1cncn1` (centres undefined), the cytotoxicity at 70.5 h was -11.4%.

For the molecule `O=C(Nc1cccnc1)C1=NN(c2ccccc2)C(=O)CN1`, the cytotoxicity at 70.5 h came out at 6.02%.

In the case of `Cc1noc(CN2CCN(C(=O)N(C)C)CC2)n1`, the cytotoxicity at 70.5 h was -11%.

For `CC(C(=O)NCCOc1ccc2c(c1)CCC2)n1cncn1` (centres undefined), the cytotoxicity at 70.5 h turned out to be 7.17%.

Take `CC1CN(Cc2noc(C3CC3)n2)CCN1Cc1noc(C2CC2)n1` (centres undefined): the cytotoxicity at 70.5 h was -13.7%.

Turning to `Cc1ccc(C(=O)N2CCN(CC(C)O)CC2)cc1S(C)(=O)=O` (centres undefined), the cytotoxicity at 70.5 h is -6.11%.

Take `CCc1nnc2n1CCN(C(=O)Cc1nc(-c3ccco3)oc1C)C2`: the cytotoxicity at 70.5 h is 10.8%.

Take `Cc1nn(C)c(C)c1CC(=O)N1CCCC(n2cccn2)C1` (centres undefined): the cytotoxicity at 70.5 h is -2.45%.

Consider `CC(C)c1noc(C(C)N2CCN(Cc3ccccc3C#N)CC2)n1` (centres undefined), for which the cytotoxicity at 70.5 h was 2.84%.

As for `CNC(=O)c1ccc(C(=O)N2CCCC2c2cnn(C)c2)cn1` (centres undefined), the cytotoxicity at 70.5 h is 1.99%.

`Cc1nc(CN2CCc3nn(C(C)C)c(=O)cc3C2)oc1C`: the cytotoxicity at 70.5 h came to 4.51%.
